From patent publication US20050152911A1, “Norovirus monoclonal antibodies and peptides” (priority 2003, published 2005)
Ends that are not written are not given here.

Legend:
[1] = system: rNV binding to CaCo-2 cells; settings: serial dilutions of peptide, free and linked to carrier; Example 4 written in present tense
[2] = system: rSMV binding to CaCo-2 cells; settings: serial dilutions of peptide, free and linked to carrier; Example 4 written in present tense

Row | Sequence | reduction of binding of rNV to CaCo-2 cells [1] | reduction of binding of rSMV to CaCo-2 cells [2]
1 | WTRGGHGL [compound 1731, WTRGGHGL] | reduce the binding | –
2 | WTRGSHNL [peptide 1730, WTRGSHNL] | reduce the binding | –
3 | WTRGQHQL [compound 1732, WTRGQHQL] | reduce the binding | –
4 | WLPAPIDKL [peptide 1800, WLPAPIDKL] | – | reduces binding
